What was measured:
[1] = Phase I study APG-115-US-001 (NCT02935907): safety; assay type: in vivo
Method: This Phase I study (APG-115-US-001) was designed to assess safety, toxicity, pharmacokinetics (PK), pharmacodynamics (PD), and antitumor activity of APG-115 orally in patients with advanced solid tumors in US (NCT02935907).
For Safety study of APG-115, the safety evaluation included vital signs, electrocardiogram (ECG) parameters, Easter Cooperative Oncology Group (ECOG) performance status data, clinical laboratory tests and adverse event data. Safety assessments were performed in each treatment cycle.
Single dose escalation study was conducted. A standard “3+3” design was employed to determine the maximum tolerated dose (MTD) of APG-115 by assessing the dose limiting toxicity (DLT) of APG-115. […] of APG-115 was tested: 10, 20, 50, 100, 200, and 300 mg. APG-115 was administrated orally every other day (QOD) for a consecutive 3 weeks (i.e. dosed at Day 1, 3, 5, 7, 9, 11, 13, 15, 17, 19, and 21), with one week dosing off as 4-weeks a cycle. […] The scheme of the trial design is provided below.

[2] = Phase I study CTR20170975 in Chinese patients: safety; assay type: in vivo, human
Method: Patients with advanced soft tissue sarcoma (STS), adenoid cystic carcinoma (ACC) or other solid tumors in China (CTR20170975) were treated with APG-115. In dose escalation, patients received APG-115 (100-200 mg) orally QOD for first 21 days of a 28-day cycle, until disease progression. Study objectives include safety (primary endpoint), pharmacokinetics (PK), pharmacodynamics (PD), and antitumor activity assessed every 8 weeks.
This is a Phase I study (CTR20170975) is designed to assess the safety, dose-limiting toxicities (DLT), the maximum tolerated dose (MTD)/recommended phase 2 dose (RP2D), pharmacokinetics (PK), pharmacodynamics (PD) profile and anti-tumor activity of orally administered APG-115 in Chinese patients with advanced soft tissue sarcoma and other solid tumors.
Single dose escalation study was conducted. A standard “3+3” design was employed to determine the maximum tolerated dose (MTD) of APG-115 by assessing the dose limiting toxicity (DLT) of APG-115. Three dose levels of APG-115 was tested: 100, 150, 200 mg. APG-115 was administrated orally every other day (QOD) for a consecutive 3 weeks (i.e. dosed at Day 1, 3, 5, 7, 9, 11, 13, 15, 17, 19, and 21), with one week dosing off as 4-weeks a cycle. […] The scheme of the trial design is provided below.
This study was conducted with an initial dosage of […], according to the preliminary safety results in phase I study of APG-115 in the US.

[3] = tested on: Trp53 mutant MC38 syngeneic murine colon tumor; experiment: In vivo efficacy study in MC38 model; design: species or system mouse; conditions: for T/C (%) d17 / RTV (Mean ± SEM) d17: anti-PD-1 5 mg/kg i.p. biw; for RTV (Mean ± SEM) d17: C57BL/6 mice
Method: Each mouse was inoculated subcutaneously at the right flank region with MC38 tumor cells (5×10^5) in 0.1 mL of PBS for tumor development. The treatments were initiated when the mean tumor size reached ˜63 mm^3. The test articles were administered to the tumor-bearing mice according to the regimen shown in the experimental design Table 10. The day of start dosing was defined as d1.
Efficacy of combination treatment with APG-115 plus anti-PD-1 antibody was further evaluated in a Trp53 mutant MC38 syngeneic mouse tumor model on a C57BL/6 background.

CCN1[C@@H](C(=O)NC23CCC(C(=O)O)(CC2)CC3)[C@H](c2cccc(Cl)c2F)[C@]2(C(=O)Nc3cc(Cl)ccc32)C12CCCCC2 [APG-115]
MTD/RP2D of APG-115 monotherapy ([1]; QOD 3 weeks on, 1 week off): 100 mg
pts discontinued treatment: Adverse Event ([1]; human, in vivo): 3
DLTs observed during cycle 1 ([1]; in vivo): Four
events determined as DLTs ([1]; in vivo): Platelet count decreased, fatigue, and nausea
patients with Absolute neutrophil count decreased (less than 1.00×10^3/uL) after C2D21 ([1]; in vivo): three patients
MTD ([2]; QOD, 21 days on 7 days off): 150 mg
Adverse Event: Abdominal distension ([2]; human, in vivo): 2 (14.3%)
Adverse Event: Abdominal pain ([2]; human, in vivo): 2 (14.3%)
Adverse Event: Anaemia ([2]; human, in vivo): 11 (78.6%)
Adverse Event: Any AE ([2]; human, in vivo): 14 (100.0%)
Adverse Event: Asthenia ([2]; human, in vivo): 2 (14.3%)
Adverse Event: Blood alkaline phosphatase increased ([2]; human, in vivo): 2 (14.3%)
Adverse Event: Blood creatinine increased ([2]; human, in vivo): 2 (14.3%)
Adverse Event: Cancer pain ([2]; human, in vivo): 2 (14.3%)
Adverse Event: Decreased appetite ([2]; human, in vivo): 2 (14.3%)
Adverse Event: Febrile neutropenia ([2]; human, in vivo): 2 (14.3%)
Adverse Event: Gamma-glutamyltransferase increased ([2]; human, in vivo): 4 (28.6%)
Adverse Event: Headache ([2]; human, in vivo): 2 (14.3%)
Adverse Event: Hypercholesterolaemia ([2]; human, in vivo): 8 (57.1%)
Adverse Event: Hypertriglyceridaemia ([2]; human, in vivo): 5 (35.7%)
Adverse Event: Hyperuricaemia ([2]; human, in vivo): 3 (21.4%)
Adverse Event: Hypoalbuminaemia ([2]; human, in vivo): 7 (50.0%)
Adverse Event: Hypokalaemia ([2]; human, in vivo): 3 (21.4%)
Adverse Event: Insomnia ([2]; human, in vivo): 2 (14.3%)
Adverse Event: Low density lipoprotein increased ([2]; human, in vivo): 2 (14.3%)
Adverse Event: Nausea ([2]; human, in vivo): 5 (35.7%)
Adverse Event: Neutrophil count decreased ([2]; human, in vivo): 5 (35.7%)
Adverse Event: Oedemaperipheral ([2]; human, in vivo): 3 (21.4%)
Adverse Event: Platelet count decreased ([2]; human, in vivo): 9 (64.3%)
Adverse Event: Vomiting ([2]; human, in vivo): 8 (57.1%)
Adverse Event: White blood cell count decreased ([2]; human, in vivo): 7 (50.0%)
Grade 3 Adverse Event: Anaemia ([2]; human, in vivo): 5 (35.7%)
Grade 3 Adverse Event: Any AE ([2]; human, in vivo): 10 (71.4%)
Grade 3 Adverse Event: Blood creatinine increased ([2]; human, in vivo): 1 (7.1%)
Grade 3 Adverse Event: Dyspnoea ([2]; human, in vivo): 1 (7.1%)
Grade 3 Adverse Event: Febrile neutropenia ([2]; human, in vivo): 2 (14.3%)
Grade 3 Adverse Event: Lipase increased ([2]; human, in vivo): 1 (7.1%)
Grade 3 Adverse Event: Neutrophil count decreased ([2]; human, in vivo): 4 (28.6%)
Grade 3 Adverse Event: Platelet count decreased ([2]; human, in vivo): 6 (42.9%)
Grade 3 Adverse Event: Pulmonary embolism ([2]; human, in vivo): 1 (7.1%)
Grade 3 Adverse Event: Ureteric obstruction ([2]; human, in vivo): 1 (7.1%)
Grade 3 Adverse Event: Vomiting ([2]; human, in vivo): 2 (14.3%)
Grade 3 Adverse Event: White blood cell count decreased ([2]; human, in vivo): 4 (28.6%)
Grade 3 or 4 TRAE: anaemia ([2]; human, in vivo): 38.5%
Grade 3 or 4 TRAE: leukopenia ([2]; human, in vivo): 30.8%
Grade 3 or 4 TRAE: neutropenia ([2]; human, in vivo): 23.1%
Grade 3 or 4 TRAE: thrombocytopenia ([2]; human, in vivo): 38.5%
RP2D ([2]; human, in vivo): 100 mg
SAE, % of pts ([2]; human, in vivo): 54%
SAE, pts ([2]; human, in vivo): 7 pts
most common Grade 3 or 4 AEs ([2]; human, in vivo): hematologic toxicities, particularly thrombocytopenia
T/C (%) d17 ([3]; APG-115 10 mg/kg p.o. q2d): 73%
RTV (Mean ± SEM) d17 ([3]; APG-115 10 mg/kg p.o. q2d): 15.3 ± 2.7
T/C (%) d17 ([3]; APG-115 50 mg/kg p.o. q2d): 94%
RTV (Mean ± SEM) d17 ([3]; APG-115 50 mg/kg p.o. q2d): 19.8 ± 2.2
antitumor activity as single agent ([3]; APG-115 10 and 50 mg/kg): minimal antitumor activity
